Test results: US20100279329A1, “METHOD FOR THE STABILISATION OF PURIFIED P-GLYCOPROTEIN” (UNIVERSITY OF BRIGHTON, priority 2007, published 2010)
“Also recorded” adds a separate entry of the source.

Assays:
P-glycoprotein (P-gp) [1] = molecular target: T1, P-glycoprotein (P-gp) (Homo sapiens, UniProt P08183); experiment: ATPase activity, varying ATP concentration (Michaelis-Menten kinetics), colorimetric Pi release; type: biochemical; design: made in house; host or cells: Trichoplusia ni (High Five) insect cells, recombinant baculovirus; conditions: for Nicardipine stimulated Vmax / Effect of the disaccharide on nicardipine stimulated ATPase activity (Vmax): 30 μM nicardipine; for Nicardipine stimulated Vmax / Basal Vmax: glycerol purified P-gp, mean (SEM), n=4; for Basal Vmax / Effect of the disaccharide on basal ATPase activity: no drug; for Effect of the disaccharide on nicardipine stimulated ATPase activity (Vmax) / Effect of the disaccharide on basal ATPase activity: 10-300 mM disaccharide added to glycerol purified P-gp, two way ANOVA
T1 sequence (P08183 whole entry): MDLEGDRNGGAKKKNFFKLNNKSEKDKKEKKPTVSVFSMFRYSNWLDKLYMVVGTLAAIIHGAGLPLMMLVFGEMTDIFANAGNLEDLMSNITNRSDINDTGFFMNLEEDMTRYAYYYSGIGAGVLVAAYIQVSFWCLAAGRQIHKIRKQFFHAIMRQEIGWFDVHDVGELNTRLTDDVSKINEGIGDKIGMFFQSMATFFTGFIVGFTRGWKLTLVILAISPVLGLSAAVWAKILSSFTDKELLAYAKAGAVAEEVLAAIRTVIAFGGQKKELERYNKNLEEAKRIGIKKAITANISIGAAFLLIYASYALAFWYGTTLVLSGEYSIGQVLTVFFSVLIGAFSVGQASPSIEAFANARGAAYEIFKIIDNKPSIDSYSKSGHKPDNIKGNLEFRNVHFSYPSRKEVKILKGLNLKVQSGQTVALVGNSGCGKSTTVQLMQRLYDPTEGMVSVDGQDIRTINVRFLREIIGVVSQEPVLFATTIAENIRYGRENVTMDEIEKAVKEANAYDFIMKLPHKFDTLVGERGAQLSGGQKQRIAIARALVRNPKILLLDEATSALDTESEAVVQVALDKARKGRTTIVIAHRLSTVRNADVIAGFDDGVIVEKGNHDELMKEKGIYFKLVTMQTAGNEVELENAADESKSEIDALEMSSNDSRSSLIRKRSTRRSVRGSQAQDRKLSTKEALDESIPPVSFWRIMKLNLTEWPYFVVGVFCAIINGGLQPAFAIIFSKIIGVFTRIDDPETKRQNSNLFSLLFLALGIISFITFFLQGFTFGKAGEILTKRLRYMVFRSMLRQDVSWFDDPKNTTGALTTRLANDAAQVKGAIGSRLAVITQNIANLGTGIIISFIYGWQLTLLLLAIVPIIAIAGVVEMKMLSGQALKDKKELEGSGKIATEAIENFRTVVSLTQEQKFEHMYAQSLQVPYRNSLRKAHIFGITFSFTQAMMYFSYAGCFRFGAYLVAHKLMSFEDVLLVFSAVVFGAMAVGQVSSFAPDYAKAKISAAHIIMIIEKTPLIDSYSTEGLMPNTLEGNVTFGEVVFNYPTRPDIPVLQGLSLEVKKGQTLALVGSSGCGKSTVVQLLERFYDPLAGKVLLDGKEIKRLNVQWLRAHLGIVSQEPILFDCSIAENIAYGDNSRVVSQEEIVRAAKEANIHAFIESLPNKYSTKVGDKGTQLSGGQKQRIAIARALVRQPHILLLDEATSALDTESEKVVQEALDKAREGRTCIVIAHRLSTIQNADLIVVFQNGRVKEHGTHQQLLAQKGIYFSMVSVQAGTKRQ
Protocol: A colorimetric assay (Chifflet et al., 1988) was used to determine ATP hydrolysis via release of inorganic phosphate. P-gp activity was expressed as μmol Pi/min/mg protein.
A 0-20 nmol standard curve was set up using KH2PO4 as a source of Pi. Background Pi was measured using wells containing no protein or drug only ATP and ATPase buffer (50 mM Tris pH 7.4, 150 mM NH4Cl, 5 mM MgSO4, 0.02% (w/v) NaN3).
The plate was incubated for 20 minutes at 37° C. and the reaction quenched by rapid addition of 40 μl 12% (w/v) SDS to all wells. 100 μl of a 1:1 mixture of 6% (w/v) ascorbate in 1M HCl:1% (w/v) ammonium molybdate (prepared after the reaction had been quenched due to its sensitivity to light) was added to all wells and the plate was incubated for 5 minutes at room temperature. Finally, 100 μl 2% (w/v) sodium citrate/sodium metaarsentie/2% (v/v) acetic acid was added and the plate incubated at 37° C. for 15 minutes. The plate was then allowed to cool and the absorbance measured at a wavelength of 750 nm in a plate reader (SpectraMax 250, Molecular Devices/Multiskan Ascent). The amount of Pi released was calculated from the Pi standard curve and the ATPase activity of P-gp calculated.
The amount of protein (mg) in 20 μl was calculated from the protein concentration determined by BSA standard curve (see 1.2.8) allowing ATPase activity to be determined as μmol/min/mg protein. The Michaelis-Menten equation (Equation 1) was fitted to a graph of ATPase activity using non-linear least squares fit (GraphPad Prism 4.0).
Both varying ATP and varying drug assays were performed.

P-glycoprotein (P-gp) [2] = molecular target: T1, P-glycoprotein (P-gp); experiment: ATPase activity of P-gp proteoliposomes after freeze drying, rehydration and storage; type: biochemical; design: made in house; host or cells: Trichoplusia ni (High Five) insect cells, recombinant baculovirus; conditions: storage at 4° C. only
Protocol: All freeze drying was carried out using a CHRIST Alpha 2-4 (MartinChrist, Germany) with the condenser temperature set to −80° C. Initial experiments were performed with product in micro-centrifuge tubes. Later experiments were performed using 2 ml glass freeze drying vials and freeze drying injection stoppers in conjunction with a stoppering system. This permitted vials to be sealed under vacuum, thus avoiding moisture uptake from the atmosphere when the chamber pressure was raised to atmospheric. In all experiments the shelf was pre-cooled to −80° C. to avoid melting of products whilst the chamber was being evacuated to the required pressure.
In order for freeze drying to be considered successful P-gp must have at least retained ATPase activity on rehydration immediately after freeze drying. On completion of the freeze drying cycle the solid product cake was rehydrated with distilled water. The product vial was vortexed to ensure the dried product was completely dissolved and rehydrated. […]
P-gp proteoliposomes were freeze dried, sealed and stored at a range of temperatures (4° C., 20° C. and 37° C.) and ATPase activity was assessed at intervals up to 150 days. […]
Following rehydration of P-gp proteoliposomes the ATPase activity was measured as described earlier. Activity was assessed following storage at 4° C., 20° C. and 37° C. at intervals up to 30 days.

P-glycoprotein (P-gp) [3] = molecular target: T1, P-glycoprotein (P-gp); experiment: ATPase activity, varying drug concentration at constant ATP concentration (dose response); conditions: 300 mM disaccharide vs none; glycerol purified P-gp; two way ANOVA
Excerpt: The assay was set up, conducted and read in conditions identical to those described above. […] The equation for the general dose response curve is given below (Equation 2).
Equation 2: The general dose response curve equation, where • V=rate of hydrolysis expressed as μmol/min/mg Pi, • Vmax=maximum rate of hydrolysis, • Vmin=minimum rate of hydrolysis, • [D]=concentration of drug, and • EC50=concentration of drug required to produce half maximum rate of hydrolysis.
The highest concentration was similar to that found in the reaction volume of an ATPase assay when a 20% (w/v) buffer was used (10 mM-300 mM). […] Both varying ATP and varying drug assays were performed.

[4] = molecular target: T2, plasma membrane H+-ATPase (Kluyveromyces lactis, UniProt P49380); conditions: cited from earlier work
T2 sequence (P49380 1-899): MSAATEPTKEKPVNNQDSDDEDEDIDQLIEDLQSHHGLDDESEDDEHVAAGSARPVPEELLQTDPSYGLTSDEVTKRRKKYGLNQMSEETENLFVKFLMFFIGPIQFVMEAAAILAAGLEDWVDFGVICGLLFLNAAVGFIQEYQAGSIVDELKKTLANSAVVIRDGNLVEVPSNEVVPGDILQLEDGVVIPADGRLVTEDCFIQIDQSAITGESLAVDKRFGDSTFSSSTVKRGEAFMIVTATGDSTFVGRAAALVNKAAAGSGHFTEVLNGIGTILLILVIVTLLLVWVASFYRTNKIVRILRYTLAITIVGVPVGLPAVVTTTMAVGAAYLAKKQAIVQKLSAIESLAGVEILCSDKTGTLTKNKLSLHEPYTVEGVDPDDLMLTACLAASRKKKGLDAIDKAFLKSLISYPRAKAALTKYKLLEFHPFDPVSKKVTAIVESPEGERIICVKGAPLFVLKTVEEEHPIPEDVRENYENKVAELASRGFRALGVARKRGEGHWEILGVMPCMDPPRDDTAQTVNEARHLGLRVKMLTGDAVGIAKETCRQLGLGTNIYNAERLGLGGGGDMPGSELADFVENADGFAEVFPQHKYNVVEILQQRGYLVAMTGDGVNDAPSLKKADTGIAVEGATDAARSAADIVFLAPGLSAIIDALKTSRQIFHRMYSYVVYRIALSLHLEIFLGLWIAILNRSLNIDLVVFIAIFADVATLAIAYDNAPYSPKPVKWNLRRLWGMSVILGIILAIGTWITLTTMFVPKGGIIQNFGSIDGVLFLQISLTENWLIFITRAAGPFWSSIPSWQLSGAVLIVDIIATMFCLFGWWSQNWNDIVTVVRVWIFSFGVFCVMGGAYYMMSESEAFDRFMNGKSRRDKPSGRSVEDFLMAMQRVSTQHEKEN

Structure (SMILES): OC[C@H]1O[C@H](O[C@H]2[C@H](O)[C@@H](O)[C@@H](O)O[C@@H]2CO)[C@H](O)[C@@H](O)[C@@H]1O [Maltose, α-D-glucopyranosyl (1-4) α-D-glucopyranose]
- Nicardipine stimulated Vmax (P-glycoprotein (P-gp) [1]; 10 mM maltose): 1.7 (1.1) μmol/min/mg
- Basal Vmax (P-glycoprotein (P-gp) [1]; 10 mM maltose): 0.1 (0.4) μmol/min/mg
- Nicardipine stimulated Vmax (P-glycoprotein (P-gp) [1]; 30 mM maltose): 1.1 (0.6) μmol/min/mg
- Basal Vmax (P-glycoprotein (P-gp) [1]; 30 mM maltose): 0.1 (0.1) μmol/min/mg
- Nicardipine stimulated Vmax (P-glycoprotein (P-gp) [1]; 100 mM maltose): 1.0 (0.3) μmol/min/mg
- Basal Vmax (P-glycoprotein (P-gp) [1]; 100 mM maltose): 0.1 (0.6) μmol/min/mg
- Nicardipine stimulated Vmax (P-glycoprotein (P-gp) [1]; 300 mM maltose): 0.9 (0.4) μmol/min/mg
- Basal Vmax (P-glycoprotein (P-gp) [1]; 300 mM maltose): 0.1 (0.2) μmol/min/mg
- Effect of the disaccharide on nicardipine stimulated ATPase activity (Vmax) (P-glycoprotein (P-gp) [1]): no significant affect; also recorded: did not alter; also recorded: does not effect; also recorded: no significant difference
- Effect of the disaccharide on basal ATPase activity (P-glycoprotein (P-gp) [1]): remained unchanged; also recorded: no significant difference
- Time for which P-gp ATPase activity is preserved after freeze drying (P-glycoprotein (P-gp) [2]): ≤ 12 days

Structure (SMILES): OC[C@H]1O[C@H](O[C@H]2O[C@H](CO)[C@@H](O)[C@H](O)[C@H]2O)[C@H](O)[C@@H](O)[C@@H]1O [Trehalose, α-D-glucopyranosyl (1-1) α-D-glucopyranose]
- Effect of the disaccharide on potency of nicardipine to stimulate ATPase activity (P-glycoprotein (P-gp) [3]): did not affect; also recorded: unaffected; also recorded: no significant difference
- Effect on ATPase activity of plasma membrane H+-ATPase ([4]; 0.6 M to 0.8M trehalose, 20° C.): inhibit
- Reduction in Vmax of plasma membrane H+-ATPase ([4]; high trehalose concentrations, 40° C.): negligible
- Nicardipine stimulated Vmax (P-glycoprotein (P-gp) [1]; 10 mM trehalose): 4.7 (1.6) μmol/min/mg
- Basal Vmax (P-glycoprotein (P-gp) [1]; 10 mM trehalose): 0.86 (0.67) μmol/min/mg
- Nicardipine stimulated Vmax (P-glycoprotein (P-gp) [1]; 30 mM trehalose): 5.6 (2.3) μmol/min/mg
- Basal Vmax (P-glycoprotein (P-gp) [1]; 30 mM trehalose): 0.63 (0.4) μmol/min/mg
- Nicardipine stimulated Vmax (P-glycoprotein (P-gp) [1]; 100 mM trehalose): 4.9 (2.1) μmol/min/mg
- Basal Vmax (P-glycoprotein (P-gp) [1]; 100 mM trehalose): 1.0 (0.86) μmol/min/mg
- Nicardipine stimulated Vmax (P-glycoprotein (P-gp) [1]; 300 mM trehalose): 3.7 (1.3) μmol/min/mg
- Basal Vmax (P-glycoprotein (P-gp) [1]; 300 mM trehalose): 0.7 (0.54) μmol/min/mg
- Effect of the disaccharide on nicardipine stimulated ATPase activity (Vmax) (P-glycoprotein (P-gp) [1]): did not affect; also recorded: does not affect; also recorded: no significant difference
- Effect of the disaccharide on basal ATPase activity (P-glycoprotein (P-gp) [1]): does not affect; also recorded: no significant difference
